These compounds were tested on Pythium ultimum (assay: Pythium ultimum / liquid culture (seedling damping off)). Conditions: Globisporangium ultimum, read-out: disease control (inhibition of growth determined photometrically).
Assay type: cell-based
For `COP(=O)(CCOC(=O)c1cc2c(cc1F)COB2O)OC` [Compound 416], the inhibition at 200 ppm was at least 80%.
`COP(=O)(CCOC(=O)c1cc2c(cc1Cl)COB2O)OC` [Compound 228] gave an inhibition at 200 ppm of at least 80%.

Same assay, conditions: Globisporangium ultimum; 200 ppm; potato dextrose broth, 24° C., 2-3 days after application; read-out: disease control (inhibition of growth determined photometrically)
With `O=C(NCCC(F)(F)F)c1cc2c(cc1F)COB2O` [Compound 72] the inhibition at 200 ppm was at least 80%.
`O=C(NCCOc1ccccc1)c1cc2c(cc1F)COB2O` [Compound 117] showed an inhibition at 200 ppm of at least 80%.
Compound `O=C(NCC1(O)CCCCC1)c1ccc2c(c1)B(O)OC2` [Compound 247] has an inhibition at 200 ppm of at least 80%.
Work on `CSc1nc(NC(=O)c2cc3c(cc2F)COB3O)n[nH]1` [Compound 177] yielded an inhibition at 200 ppm of at least 80%.
With `O=C(NCCc1ccc2c(c1)OCO2)c1cc2c(cc1Cl)COB2O` [Compound 58] the inhibition at 200 ppm was at least 80%.
`O=C(NC1CCSC1=O)c1cc2c(cc1F)COB2O` (centres unmarked) [Compound 76] gave an inhibition at 200 ppm of at least 80%.
With `O=C(NCc1ccccc1C(F)(F)F)c1ccc2c(c1)B(O)OC2` [Compound 275] the inhibition at 200 ppm was at least 80%.
With `Cc1cccnc1NC(=O)c1cc2c(cc1Cl)COB2O` [Compound 151] the inhibition at 200 ppm was at least 80%.
With `O=C(NCCc1c[nH]c2ccccc12)c1ccc2c(c1)B(O)OC2` [Compound 274] the inhibition at 200 ppm was at least 80%.
For `O=C(Nc1ccccc1-c1cc2ccccc2[nH]1)c1cc2c(cc1Cl)COB2O` [Compound 135], the inhibition at 200 ppm was at least 80%.
Compound `O=C(NCc1ccccn1)c1ccc2c(c1)B(O)OC2` [Compound 52] has an inhibition at 200 ppm of at least 80%.
Compound `O=C(NCC1(O)CCCCC1)c1cc2c(cc1F)COB2O` [Compound 74] has an inhibition at 200 ppm of at least 80%.
`CC(CN1CCOCC1)OC(=O)c1cc2c(cc1F)COB2O` (centres unmarked) [Compound 383] gave an inhibition at 200 ppm of at least 80%.
For `O=C(NCc1cccnc1)c1ccc2c(c1)B(O)OC2` [Compound 259], the inhibition at 200 ppm was at least 80%.
Work on `C#CC1(NC(=O)c2ccc3c(c2)B(O)OC3)CCCCC1` [Compound 254] yielded an inhibition at 200 ppm of at least 80%.
`COc1ccc(CNC(=O)c2cc3c(cc2Cl)COB3O)cc1` [Compound 91] was tested, and the inhibition at 200 ppm was at least 80%.
Work on `CS(=O)(=O)CCOC(=O)c1ccc2c(c1)B(O)OC2` [Compound 358] yielded an inhibition at 200 ppm of at least 80%.
`O=C(Nc1ccc2ncsc2c1)c1cc2c(cc1F)COB2O` [Compound 166] gave an inhibition at 200 ppm of at least 80%.
`O=C(NCCc1c[nH]c2ccccc12)c1cc2c(cc1F)COB2O` [Compound 130] was tested, and the inhibition at 200 ppm was at least 80%.
`Cc1csc(NC(=O)c2cc3c(cc2F)COB3O)n1` [Compound 176] showed an inhibition at 200 ppm of at least 80%.
In the case of `O=C(NCCc1ccccc1)c1cc2c(cc1F)COB2O` [Compound 111], the inhibition at 200 ppm is reported as at least 80%.
With `COC(=O)c1cc2cc(NC(=O)c3ccc4c(c3)B(O)OC4)ccc2s1` [Compound 288] the inhibition at 200 ppm was at least 80%.
`CSCCNC(=O)c1cc2c(cc1F)COB2O` [Compound 134] gave an inhibition at 200 ppm of at least 80%.
In the case of `CN(C)S(=O)(=O)c1ccc(NC(=O)c2cc3c(cc2F)COB3O)cc1` [Compound 173], the inhibition at 200 ppm is reported as at least 80%.
`CS(=O)(=O)c1ccc(CNC(=O)c2cc3c(cc2F)COB3O)cc1` [Compound 86] was tested, and the inhibition at 200 ppm was at least 80%.
`O=C(OCCCC(=O)N1CCCC1)c1cc2c(cc1F)COB2O` [Compound 408] was tested, and the inhibition at 200 ppm was at least 80%.
Compound `O=C(Nc1ccccc1N1CCOCC1)c1ccc2c(c1)B(O)OC2` [Compound 293] has an inhibition at 200 ppm of at least 80%.
With `O=C(OCCCC(=O)N1CCCC1)c1cc2c(cc1Cl)COB2O` [Compound 220] the inhibition at 200 ppm was at least 80%.
`O=C(NCCN1CCN(Cc2ccccc2)CC1)c1ccc2c(c1)B(O)OC2` [Compound 278] was tested, and the inhibition at 200 ppm was at least 80%.
In the case of `O=C(NCc1ccc2c(c1)OCCO2)c1ccc2c(c1)B(O)OC2` [Compound 269], the inhibition at 200 ppm is reported as at least 80%.
In the case of `O=C(NCCC(F)(F)F)c1cc2c(cc1Cl)COB2O` [Compound 54], the inhibition at 200 ppm is reported as at least 80%.
`CSc1nc(NC(=O)c2cc3c(cc2Cl)COB3O)n[nH]1` [Compound 149] showed an inhibition at 200 ppm of at least 80%.
In the case of `O=C(OC1CCOCC1)c1cc2c(cc1F)COB2O` [Compound 428], the inhibition at 200 ppm is reported as at least 80%.
`O=C(Nc1cc(-c2ccccc2)[nH]n1)c1cc2c(cc1Cl)COB2O` [Compound 160] gave an inhibition at 200 ppm of at least 80%.
Compound `O=C(NCc1ccc(Cl)nc1)c1cc2c(cc1Cl)COB2O` [Compound 105] has an inhibition at 200 ppm of at least 80%.
`O=C(Nc1ccc2ccccc2n1)c1ccc2c(c1)B(O)OC2` [Compound 300] was tested, and the inhibition at 200 ppm was at least 80%.
`O=C(OCC1CCCO1)c1cc2c(cc1Cl)COB2O` (centres unmarked) [Compound 212] showed an inhibition at 200 ppm of at least 80%.
`O=C(NCCC1OCCO1)c1cc2c(cc1F)COB2O` [Compound 92] was tested, and the inhibition at 200 ppm was at least 80%.
In the case of `O=C(NCc1ccc(Cl)nc1)c1ccc2c(c1)B(O)OC2` [Compound 276], the inhibition at 200 ppm is reported as at least 80%.
In the case of `O=C(NCCOc1ccccc1)c1cc2c(cc1Cl)COB2O` [Compound 83], the inhibition at 200 ppm is reported as at least 80%.
`O=C(Nc1cccc2ncccc12)c1cc2c(cc1F)COB2O` [Compound 152] gave an inhibition at 200 ppm of at least 80%.
`CS(=O)(=O)CCOC(=O)c1cc2c(cc1F)COB2O` [Compound 421] was tested, and the inhibition at 200 ppm was at least 80%.
With `O=C(NCC1CCCO1)c1ccc2c(c1)B(O)OC2` (centres unmarked) [Compound 256] the inhibition at 200 ppm was at least 80%.
With `O=C(NCc1ccccc1)c1cc2c(cc1Cl)COB2O` [Compound 71] the inhibition at 200 ppm was at least 80%.
With `Cc1cccc(Cl)c1NC(=O)c1ccc2c(c1)B(O)OC2` [Compound 281] the inhibition at 200 ppm was at least 80%.
Compound `O=C(NCc1ccc(-n2cccn2)cc1)c1ccc2c(c1)B(O)OC2` [Compound 272] has an inhibition at 200 ppm of at least 80%.
`Cc1cc(C)c2c(NC(=O)c3ccc4c(c3)B(O)OC4)[nH]nc2n1` [Compound 309] was tested, and the inhibition at 200 ppm was at least 80%.
For `O=C(Nc1cc(-c2ccccc2)[nH]n1)c1ccc2c(c1)B(O)OC2` [Compound 303], the inhibition at 200 ppm was at least 80%.
In the case of `O=C(NCC(O)c1ccc(O)cc1)c1ccc2c(c1)B(O)OC2` (centres unmarked) [Compound 249], the inhibition at 200 ppm is reported as at least 80%.
In the case of `CSCCNC(=O)c1cc2c(cc1Cl)COB2O` [Compound 101], the inhibition at 200 ppm is reported as at least 80%.
`Cc1cc(O)nc(NC(=O)c2ccc3c(c2)B(O)OC3)n1` [Compound 299] was tested, and the inhibition at 200 ppm was at least 80%.
`O=C(OCCCC(=O)N1CCCC1)c1ccc2c(c1)B(O)OC2` [Compound 346] gave an inhibition at 200 ppm of at least 80%.
For `O=C(NC1CCSC1=O)c1cc2c(cc1Cl)COB2O` (centres unmarked) [Compound 55], the inhibition at 200 ppm was at least 80%.
Compound `COCCOCCOCCOC(=O)c1cc2c(cc1Cl)COB2O` [Compound 239] has an inhibition at 200 ppm of at least 80%.
In the case of `Cc1nnc(NC(=O)c2ccc3c(c2)B(O)OC3)s1` [Compound 305], the inhibition at 200 ppm is reported as at least 80%.
Work on `O=C(NCC1CCCO1)c1cc2c(cc1Cl)COB2O` (centres unmarked) [Compound 64] yielded an inhibition at 200 ppm of at least 80%.
`O=C(NCc1ccc(-n2cccn2)cc1)c1cc2c(cc1Cl)COB2O` [Compound 93] was tested, and the inhibition at 200 ppm was at least 80%.
In the case of `COCCOCCOCCOC(=O)c1cc2c(cc1F)COB2O` [Compound 432], the inhibition at 200 ppm is reported as at least 80%.
Compound `Cc1onc(-c2ccccc2)c1NC(=O)c1ccc2c(c1)B(O)OC2` [Compound 301] has an inhibition at 200 ppm of at least 80%.
For `CC(NC(=O)c1cc2c(cc1Cl)COB2O)c1ccccc1` (centres unmarked) [Compound 75], the inhibition at 200 ppm was at least 80%.
`O=C(NCCc1cccs1)c1cc2c(cc1F)COB2O` [Compound 115] was tested, and the inhibition at 200 ppm was at least 80%.
Work on `O=C(NCCc1cccs1)c1cc2c(cc1Cl)COB2O` [Compound 81] yielded an inhibition at 200 ppm of at least 80%.
Compound `O=C(Nc1ccccc1Cl)c1cc2c(cc1Cl)COB2O` [Compound 108] has an inhibition at 200 ppm of at least 80%.
In the case of `O=C(Nc1ccc(-n2cccc2)cc1)c1cc2c(cc1F)COB2O` [Compound 159], the inhibition at 200 ppm is reported as at least 80%.
`O=C(OC1COC1)c1cc2c(cc1Cl)COB2O` [Compound 234] gave an inhibition at 200 ppm of at least 80%.
`C#CC1(NC(=O)c2cc3c(cc2Cl)COB3O)CCCCC1` [Compound 62] was tested, and the inhibition at 200 ppm was at least 80%.
`CCOC(=O)C1CC=CCC1NC(=O)c1ccc2c(c1)B(O)OC2` (centres unmarked) [Compound 248] was tested, and the inhibition at 200 ppm was at least 80%.
For `O=C(OC1CCOC1)c1cc2c(cc1Cl)COB2O` (centres unmarked) [Compound 235], the inhibition at 200 ppm was at least 80%.
Compound `CN(C)S(=O)(=O)c1ccc(NC(=O)c2ccc3c(c2)B(O)OC3)cc1` [Compound 295] has an inhibition at 200 ppm of at least 80%.
In the case of `O=C(OC1CCOC1)c1cc2c(cc1F)COB2O` (centres unmarked) [Compound 426], the inhibition at 200 ppm is reported as at least 80%.
Work on `Cc1onc(-c2ccccc2)c1NC(=O)c1cc2c(cc1Cl)COB2O` [Compound 156] yielded an inhibition at 200 ppm of at least 80%.
`Cn1cc(CCCOC(=O)c2cc3c(cc2Cl)COB3O)cn1` [Compound 219] was tested, and the inhibition at 200 ppm was at least 80%.
`Cc1onc(-c2ccccc2)c1NC(=O)c1cc2c(cc1F)COB2O` [Compound 180] gave an inhibition at 200 ppm of at least 80%.
For `CC(NC(=O)c1ccc2c(c1)B(O)OC2)c1ccccc1` (centres unmarked) [Compound 263], the inhibition at 200 ppm was at least 80%.
Work on `O=C(OC1COC1)c1ccc2c(c1)B(O)OC2` [Compound 363] yielded an inhibition at 200 ppm of at least 80%.
`Cc1nnc(NC(=O)c2cc3c(cc2Cl)COB3O)s1` [Compound 164] gave an inhibition at 200 ppm of at least 80%.
`O=C(Nc1ccc(-n2cccc2)cc1)c1ccc2c(c1)B(O)OC2` [Compound 287] showed an inhibition at 200 ppm of at least 80%.
`O=C(NCCC1OCCO1)c1ccc2c(c1)B(O)OC2` [Compound 255] gave an inhibition at 200 ppm of at least 80%.
Work on `O=C(NCCCCl)c1cc2c(cc1F)COB2O` [Compound 70] yielded an inhibition at 200 ppm of at least 80%.
`Cc1cc(O)nc(NC(=O)c2cc3c(cc2F)COB3O)n1` [Compound 178] showed an inhibition at 200 ppm of at least 80%.
`O=C(Nc1cccc(F)c1)c1cc2c(cc1Cl)COB2O` [Compound 120] was tested, and the inhibition at 200 ppm was at least 80%.
Work on `Cc1cc(O)nc(NC(=O)c2cc3c(cc2Cl)COB3O)n1` [Compound 153] yielded an inhibition at 200 ppm of at least 80%.
Work on `Cc1cc(=O)oc2cc(NC(=O)c3cc4c(cc3F)COB4O)ccc12` [Compound 172] yielded an inhibition at 200 ppm of at least 80%.
`O=C(NCc1ccc(-n2cccn2)cc1)c1cc2c(cc1F)COB2O` [Compound 126] showed an inhibition at 200 ppm of at least 80%.
Work on `O=C(NCCc1ccc2c(c1)OCO2)c1cc2c(cc1F)COB2O` [Compound 82] yielded an inhibition at 200 ppm of at least 80%.
With `Cc1cc(NC(=O)c2cc3c(cc2F)COB3O)n(C)n1` [Compound 175] the inhibition at 200 ppm was at least 80%.
In the case of `O=C(Nc1ccc(S(=O)(=O)Nc2ccccn2)cc1)c1ccc2c(c1)B(O)OC2` [Compound 296], the inhibition at 200 ppm is reported as at least 80%.
`O=C(NCCC(F)(F)F)c1ccc2c(c1)B(O)OC2` [Compound 246] gave an inhibition at 200 ppm of at least 80%.
`CC(CN1CCOCC1)OC(=O)c1ccc2c(c1)B(O)OC2` (centres unmarked) [Compound 322] showed an inhibition at 200 ppm of at least 80%.
In the case of `COc1ccc(NC(=O)c2cc3c(cc2Cl)COB3O)c(OC)c1` [Compound 118], the inhibition at 200 ppm is reported as at least 80%.

From patent publication US20170000133A1, “BENZOXABOROLE FUNGICIDES” (SYNGENTA PARTICIPATIONS AG, priority 2013, published 2017)
